Our source for the Vmax values is patent US5482996A, “Protein-containing polymers and a method of synthesis of protein-containing polymers in organic solvents” (University of Pittsburgh, priority 1993, dated 1996).

Holding throughout (assay): Hydrolysis of peptide p-nitroanilide substrate, kinetic constants
Holding throughout (format): biochemical

Test [1] has as its target T1, Subtilisin Carlsberg, unmodified fraction purified from the PEG modification reaction mixture (Bacillus licheniformis, UniProt P00780).
T1 construct: purchased Sigma Chemical Co
T1 sequence (P00780 106-379): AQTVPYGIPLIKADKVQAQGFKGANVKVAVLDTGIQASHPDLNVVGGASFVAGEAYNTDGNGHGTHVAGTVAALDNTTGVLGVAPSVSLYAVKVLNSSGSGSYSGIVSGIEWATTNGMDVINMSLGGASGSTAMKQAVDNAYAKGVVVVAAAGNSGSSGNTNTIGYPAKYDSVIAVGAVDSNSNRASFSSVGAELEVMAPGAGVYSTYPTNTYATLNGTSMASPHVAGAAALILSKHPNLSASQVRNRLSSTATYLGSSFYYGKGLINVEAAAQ
The protocol:
(§1) Kinetic studies of the modified protein were performed using substrate (N-succinyl-L-alanyl-L-alanyl-L-prolyl-L-phenylalanyl p-nitroanilide) in 0.1M Tris-HCl buffer, pH 8.6. The purified HPLC fractions (three total) were tested for activity while increasing the substrate concentrations in equal increments. Substrate concentration versus rate was plotted to determine Vmax and Km using non-linear regression analysis. A standard of pure subtilisin was analyzed as a control.
(§2) Before reacting PEG-subtilisin with other materials it is necessary to fully characterize the activity and stability of the "bio-monomer". Using solubility, IMAC, and HPLC the modified protein was separated into predominantly singly or doubly modified protein fractions. […] Thus, the activities and stabilities noted are average properties for the sample being studied. For comparison to the native protein, unmodified protein was purified from the modification reaction mixture and characterized to some degree.
(§3) As set forth above, the activity of the modified enzymes was assessed with the artificial peptide substrate succinyl-L-alanyl-L-alanyl-L-prolyl-L-phenylalanyl p-nitroanilide. A sample of 30 mg modified protein powder was dissolved in tetrahydrofuran, and filtered with a solvent resistant 0.22 μm filter in order to remove the insoluble native protein. The solvent was evaporated and, as mentioned above, values for Vmax and Km were determined.

For test [2], the target named is T2, Subtilisin Carlsberg, doubly modified with PEG monomethacrylate (MW 8,000) (Bacillus licheniformis, UniProt P00780).
T2 construct: purchased Sigma Chemical Co
T2 sequence (P00780 106-379): T1 sequence (P00780 106-379)
On the procedure:
as §1, §2, §3

The target in test [3] is T3, Subtilisin Carlsberg, singly modified with PEG monomethacrylate (MW 8,000) (Bacillus licheniformis, UniProt P00780).
T3 construct: purchased Sigma Chemical Co
T3 sequence (P00780 106-379): T1 sequence (P00780 106-379)
The following applies: 25% dioxane/75% buffer. On the procedure:
as §1, §2, §3

Test [4] has as its target T4, Subtilisin Carlsberg, native (pure subtilisin standard) (Bacillus licheniformis, UniProt P00780).
T4 construct: purchased Sigma Chemical Co
T4 sequence (P00780 106-379): T1 sequence (P00780 106-379)
The protocol:
as §1, §3

SMILES strings stand for the structures. Starred links: 1 amine or outer side, 2 acyl side, 3 side chain; linkers in the order of their positions; H or OH if unused. Residues, ends and D or L forms follow the SMILES beside them. *: point of attachment. pNA = O=[N+]([O-])c1ccc(N*)cc1; Suc = O=C(CCC(=O)[*:2])[*:1]

On to `C[C@H](NC(=O)CCC(=O)O)C(=O)N[C@@H](C)C(=O)N1CCC[C@H]1C(=O)N[C@@H](Cc1ccccc1)C(=O)Nc1ccc([N+](=O)[O-])cc1` [N-succinyl-L-alanyl-L-alanyl-L-prolyl-L-phenylalanyl p-nitroanilide] (Suc-AAPF-pNA), for which the Vmax in test [1] (25% dioxane/75% buffer) is 2.9 ΔA412/sec/mg protein; in test [1] (Tris-HCl buffer (0.1M, pH 8.6)), 2.2 ΔA412/sec/mg protein; in test [2] (25% dioxane/75% buffer), 1.8 ΔA412/sec/mg protein; in test [2] (Tris-HCl buffer (0.1M, pH 8.6)) it was 1.6 ΔA412/sec/mg protein; in test [3], 5.3 ΔA412/sec/mg protein; in test [4] (25% dioxane/75% buffer), 66.2 ΔA412/sec/mg protein. Further, the Vmax in test [4] (Tris-HCl buffer (0.1M, pH 8.6)) is 108 ΔA412/sec/mg protein.
